Test results from US20230109489A1, “Compound and Use Thereof” (FELIQS CORPORATION, priority 2020, published 2023).

Columns and labels:
[1] = LO. scavenging ability, liposome-Fe2+ system (Fe stimulation), NBD-TEEPO fluorescence; format: biochemical; details: for R/L: ratio of activity value (R) of LO. scavenging ability to activity value (L) of LOO. scavenging ability / Fe stimulation (R): activity value of LO. scavenging ability: test compound 10 μmol/l; for Fe stimulation (R): activity value of LO. scavenging ability: FeSO4 1.0 mmol/l, liposomes, 37° C., 180 minutes, 1−(AUCSample/AUCControl)
Description: As described above, the compound of the present invention has alkoxyl radical scavenging ability. The “alkoxyl radical scavenging ability” in the present invention means the ability to scavenge LO., for example. The LO. scavenging ability can be evaluated on the basis of its activity value, for example. The activity value of the LO. scavenging ability can be evaluated, for example, using the liposome-Fe^2+ system disclosed in WO 2019/009355. More specifically, it can be measured in a manner described in Example 1 below. As a specific example, the activity value of the LO. scavenging ability can be measured by performing the following steps (i) to (v): • (i) preparing a buffer solution containing a compound represented by the formula (A) and liposomes; • (ii) adding a divalent iron ion source material; • (iii) adding a test compound; • […] measuring a fluorescence; and • (v) determining the activity value of the test compound as per the following equation using the result of the fluorescence measurement.
Activity value of LO. scavenging ability=1−(AUCSample/AUCControl)
AUCSample: the area under the curve calculated from the fluorescence intensity measured in the presence of Fe^2+ and the test compound (n=1)
AUCControl: the area under the curve calculated from the fluorescence intensity measured in the presence of Fe^2+ and in the absence of the test compound
(§1) In step (i), the concentration of the compound represented by the formula (A) is, for example, 1 to 20 μmol/l and typically 5 μmol/l. The liposomes are prepared from, for example, egg-yolk phosphatidylcholine (Egg PC) and dihexadecyl hydrogen phosphate (DCP). The concentration of the egg-yolk phosphatidylcholine is, for example, 5 to 10 mg/ml and typically 2.5 mg/l. The concentration of the dihexadecyl hydrogen phosphate is, for example, 0.01 to 1 mg/ml and typically 0.1 mg/ml.
In step (ii), the concentration of the divalent iron ion source material is, for example, 0.5 to 5 mmol/l and typically 1 mmol/l. The divalent iron ion source material is, for example, iron(II) sulfate.
In step (iii), the concentration of the test compound is 5 to 100 μmol/l. A specific example of the concentration is 10 μmol/l.
In step (iv), the wavelength of excitation light at the time of measuring the fluorescence can be set to, for example, 470 nm; the fluorescence wavelength can be set to, for example, 530 nm; and the fluorescence intensity at 530 nm can be measured. The period for measuring the fluorescence is, for example, from 0 to 240 minutes at intervals of 0.1 to 5 minutes and typically 180 minutes at intervals of 3 minutes, with step (iii) being the start time, for example.
The following solutions were prepared: a solution A containing liposomes (10 mg/ml Egg PC, 0.4 mg/ml DCP) and 20 μmol/l NBD-TEEPO compound (compound represented by the formula (A)) in phosphate buffer (10 mmol/l, pH 7.4, 2.0% acetonitrile); and a solution B containing 4.0 mmol/l FeSO4 in distilled water. A 10 μl aliquot of each of the solutions A and B was dispensed using a Multidrop Combi (Thermo Fisher Scientific), and these aliquots were mixed together. The final concentrations of the respective components in the phosphate buffer (10 mmol/l, pH 7.4, 0.5% acetonitrile, 1% dimethyl sulfoxide (DMSO)) were as follows: the liposomes (2.5 mg/ml Egg PC, 0.1 mg/ml DCP), the NBD-TEEPO compound (5.0 μmol/l), a test compound (10 μmol/l), and FeSO4 (1.0 mmol/l). As the test compound, the compounds represented by the formulae (3) to (5) and (7) to (10) were used as compounds of examples, the compound (methyldopa) represented by the formula (1a) was used as a compound of a comparative example, and edaravone and a SCREEN-WELL® FDA-approved drug library (Enzo Life Sciences) were used as reference examples. The test compounds were dissolved in DMSO. […]

[2] = LOO. scavenging ability, liposome-AAPH system (AAPH stimulation), NBD-TEEPO fluorescence; format: biochemical; parameters: key: activity = 1 − (FluSample−FluBackground)/(FluControl−FluBackground); details: test compound 10 μmol/l, AAPH 20 mmol/l, liposomes, 37° C., after 40 minutes
Description: As described above, the compound of the present invention has peroxyl radical scavenging ability. “Peroxyl radical scavenging ability” in the present invention means the ability to scavenge LOO., for example. The LOO. scavenging ability can be evaluated on the basis of its activity value, for example. The activity value of the LOO. scavenging ability can be evaluated using, for example, the liposome-AAPH (2,2′-azobis(2-amidinopropane)dihydrochloride) system disclosed in WO 2019/009355. More specifically, it can be measured in a manner described in Example 1 below. As a specific example, the activity value of the LOO. scavenging ability can be measured by performing the following steps (vi) to (x): • (vi) preparing a buffer solution containing a compound represented by the formula (A) and liposomes; • (vii) adding 2,2′-azobis(2-amidinopropane)dihydrochloride; • (viii) adding a test compound; • […] measuring a fluorescence; and • (x) determining the activity value of the test compound as per the following equation using the result of the fluorescence measurement.
Activity value of LOO. scavenging ability=1−(FluSample−FluBackground)/(FluControl−FluBackground)
Flusampie: the fluorescence intensity measured in the presence of AAPH and the test compound (n=1)
FluBackground: the fluorescence intensity measured in the absence of AAPH
FluControl: the fluorescence intensity measured in the presence of AAPH and in the absence of the test compound
as §1, with “(vi),” for “(i),”, “phosphatidylcholine” for “phosphatidylcholine (Egg PC)”, “phosphate.” for “phosphate (DCP).”, “mg/ml.” for “mg/l.”
In step (vii), the concentration of AAPH is, for example, 5 to 50 mmol/l and typically 20 mmol/l.
In step (viii), the concentration of the test compound is 5 to 100 μmol/l. A specific example of the concentration is 10 μmol/l.
In step (ix), the wavelength of excitation light at the time of measuring the fluorescence can be set to, for example, 470 nm; the fluorescence wavelength can be set to, for example, 530 nm; and the fluorescence intensity at 530 nm can be measured. The measurement of the fluorescence is performed, for example, after 1 to 120 minutes has elapsed and typically after 30 to 40 minutes has elapsed since step (viii).
The following solutions were prepared: a solution A containing liposomes (10 mg/ml Egg PC, 0.4 mg/ml DCP) and NBD-TEEPO compound (20 μmol/l) in phosphate buffer (10 mmol/l, pH 7.4, 2.0% acetonitrile); and a solution B containing 80 mmol/l AAPH in phosphate buffer (10 mmol/l, pH 7.4). A 10 μl aliquot of each of the solutions A and B was dispensed using a Multidrop Combi, and these aliquots were mixed together. The final concentrations of the respective components in the phosphate buffer (10 mmol/l, pH 7.4, 0.5% acetonitrile, 1% DMSO) were as follows: the liposomes (2.5 mg/ml Egg PC, 0.1 mg/ml DCP), the NBD-TEEPO compound (5.0 μmol/l), each of the test compounds (10 μmol/l), and AAPH (20 mmol/l).
While incubating the thus-obtained mixture at 37° C., the fluorescence intensity was measured after 40 minutes had elapsed since the mixing of the components. The fluorescence intensity was measured at an excitation wavelength of 470 nm and a fluorescence wavelength of 530 nm. Then, on the basis of the thus-measured fluorescence intensities, the activity value of the LOO. scavenging ability was calculated as per the above-described equation.

| Compound | balance between the LO. scavenging ability and the LOO. scavenging ability (result in words) [1] | R/L: ratio of activity value (R) of LO. scavenging ability to activity value (L) of LOO. scavenging ability [1] | Fe stimulation (R): activity value of LO. scavenging ability [1] | AAPH stimulation (L): activity value of LOO. scavenging ability [2] |
| --- | --- | --- | --- | --- |
| CC1=NN(c2ccccc2)C(=O)C1 [Edaravone, 5-methyl-2-phenyl-2,4-dihydro-3H-pyrazol-3-one, reference compound] | approximately the same level of scavenging ability against LO. and LOO. | 0.98 | 0.288 | 0.293 |
| CCOC(=O)[C@@](C)(N)Cc1ccc(O)c(O)c1 [(10)] | – | 0.78 | 0.517 | 0.663 |
| CC(C)COC(=O)[C@@](C)(N)Cc1ccc(O)c(O)c1 [Formula (5), isobutyl (S)-2-amino-3-(3,4-dihydroxyphenyl)-2-methylpropanoate] | – | 1.19 | 0.539 | 0.452 |
| CC(C)OC(=O)[C@@](C)(N)Cc1ccc(O)c(O)c1 [Formula (8), isopropyl (S)-2-amino-3-(3,4-dihydroxyphenyl)-2-methylpropanoate] | – | 0.95 | 0.327 | 0.346 |
| CC(C)(C)OC(=O)[C@@](C)(N)Cc1ccc(O)c(O)c1 [Formula (4), t-butyl (S)-2-amino-3-(3,4-dihydroxyphenyl)-2-methylpropanoate] | – | 1.07 | 0.654 | 0.610 |
| CCC(C)OC(=O)[C@@](C)(N)Cc1ccc(O)c(O)c1 (stereo partly drawn) [Formula (3), s-butyl (2S)-2-amino-3-(3,4-dihydroxyphenyl)-2-methylpropanoate] | – | 1.04 | 0.754 | 0.726 |
| CCCCOC(=O)[C@@](C)(N)Cc1ccc(O)c(O)c1 [Formula (9), butyl (S)-2-amino-3-(3,4-dihydroxyphenyl)-2-methylpropanoate] | – | 1.04 | 0.313 | 0.301 |
| CCCOC(=O)[C@@](C)(N)Cc1ccc(O)c(O)c1 [Formula (7), propyl (S)-2-amino-3-(3,4-dihydroxyphenyl)-2-methylpropanoate] | – | 0.88 | 0.454 | 0.517 |
